Reference: ChEMBL document CHEMBL1156063, “Design of new antifungal agents: synthesis and evaluation of 1-[(1H-indol-5-ylmethyl)amino]-2-phenyl-3-(1H-1,2,4-triazol-1-yl)propan-2-ols” (2009)
Values after ≈ are worked out from the molar mass of the structure shown. Active and inactive are the calls of the source. The calls are words filed in the database; no cut-off is given here.

Legend:
Assay type in all cases: functional
Aspergillus fumigatus = assay: Antifungal activity against Aspergillus fumigatus AF98003
Candida albicans [1] = assay: Antifungal activity against Candida albicans CA98001
Candida albicans [2] = assay: Antifungal activity against fluconazole-resistant Candida albicans CA424
Candida albicans [3] = assay: Antifungal activity against fluconazole-resistant Candida albicans CA284
Candida parapsilosis [4] = assay: Antifungal activity against fluconazole-resistant Candida parapsilosis Rolland; conditions: Lodderomyces parapsilosis
Candida parapsilosis [5] = assay: Antifungal activity against fluconazole-resistant Candida parapsilosis Houdeau; conditions: Lodderomyces parapsilosis
Pichia kudriavzevii [6] = assay: Antifungal activity against fluconazole low-sensitive Candida krusei CK8
Pichia kudriavzevii [7] = assay: Antifungal activity against fluconazole-resistant Candida krusei CK506
Nakaseomyces glabratus = assay: Antifungal activity against fluconazole-resistant Candida glabrata CG468

Row | SMILES | MIC (Aspergillus fumigatus) | MIC (Candida albicans [1]) | further results
1 | OC(CNCc1ccc2[nH]ccc2c1)(Cn1cncn1)c1ccc(Cl)cc1Cl (stereo unspecified) | inactive | 0.031 µg/mL (≈ 0.0745 µM) | 
2 | CN(Cc1ccc2[nH]cc(C(=O)C(F)(F)F)c2c1)CC(O)(Cn1cncn1)c1ccc(F)cc1F (stereo unspecified) | inactive | 0.064 µg/mL (≈ 0.13 µM) | 
3 | CCC(C)n1ncn(-c2ccc(N3CCN(c4ccc(OCC5COC(Cn6cncn6)(c6ccc(Cl)cc6Cl)O5)cc4)CC3)cc2)c1=O (stereo unspecified) [ITRACONAZOLE] | 0.42 µg/mL (≈ 0.595 µM) |  | 
4 | CN(Cc1ccc2[nH]ccc2c1)CC(O)(Cn1cncn1)c1ccc(F)cc1F (stereo unspecified) | inactive | 0.035 µg/mL (≈ 0.0881 µM) | 
5 | CC(C)(C)OC(=O)n1ccc2cc(CNCC(O)(Cn3cncn3)c3ccc(F)cc3F)ccc21 (stereo unspecified) | inactive | 0.003 µg/mL (≈ 0.0062 µM) | MIC (Candida albicans [2]): 33 µg/mL (≈ 68.2 µM); MIC (Candida albicans [3]): 32 µg/mL (≈ 66.2 µM); MIC (Candida parapsilosis [4]): 19 µg/mL (≈ 39.3 µM); MIC (Candida parapsilosis [5]): 24 µg/mL (≈ 49.6 µM); MIC (Pichia kudriavzevii [6]): 3.8 µg/mL (≈ 7.86 µM); MIC (Pichia kudriavzevii [7]): 27 µg/mL (≈ 55.8 µM); MIC (Nakaseomyces glabratus): 12 µg/mL (≈ 24.8 µM)
6 | O=C(c1ccccc1)n1ccc2cc(CNCC(O)(Cn3cncn3)c3ccc(F)cc3F)ccc21 (stereo unspecified) | inactive | 0.027 µg/mL (≈ 0.0554 µM) | 
7 | OC(CNCc1ccc2[nH]ccc2c1)(Cn1cncn1)c1ccc(F)cc1F (stereo unspecified) | inactive | 0.034 µg/mL (≈ 0.0887 µM) | 
8 | CC(C)(C)OC(=O)n1ccc2cc(CNCC(O)(Cn3cncn3)c3ccc(Cl)cc3Cl)ccc21 (stereo unspecified) | inactive | 0.039 µg/mL (≈ 0.0755 µM) | 
9 | CN(Cc1ccc2c(ccn2C(=O)c2ccccc2)c1)CC(O)(Cn1cncn1)c1ccc(F)cc1F (stereo unspecified) | inactive | 0.032 µg/mL (≈ 0.0638 µM) | 
10 | OC(Cn1cncn1)(Cn1cncn1)c1ccc(F)cc1F [FLUCONAZOLE] |  | 0.19 µg/mL (≈ 0.62 µM) | MIC (Candida albicans [2]): > 64 µg/mL; MIC (Candida albicans [3]): > 64 µg/mL; MIC (Candida parapsilosis [4]): > 64 µg/mL; MIC (Candida parapsilosis [5]): > 64 µg/mL; MIC (Pichia kudriavzevii [6]): 19 µg/mL (≈ 62 µM); MIC (Pichia kudriavzevii [7]): > 64 µg/mL; MIC (Nakaseomyces glabratus): > 64 µg/mL
11 | O=C(c1ccccc1)n1ccc2cc(CNCC(O)(Cn3cncn3)c3ccc(Cl)cc3Cl)ccc21 (stereo unspecified) | inactive | 0.031 µg/mL (≈ 0.0596 µM) | 
12 | CN(Cc1ccc2c(ccn2C(=O)OC(C)(C)C)c1)CC(O)(Cn1cncn1)c1ccc(F)cc1F (stereo unspecified) | inactive | 0.06 µg/mL (≈ 0.121 µM) | 
